# From patent US7268126B2, “Polymorphic and amorphous forms of the phosphate salt of 8-fluoro-2-{4-[(methylamino)methyl]phenyl}-1,3,4,5-tetrahydro-6H-azepino[5,4,3-ce]indol-6-one” (Agouron Pharmaceuticals, Inc., priority 2004, dated 2007)
# Read-outs that look alike come from different tables or passages of the source.
# Columns and labels:
# [1] = pH 5.4
# [2] = physical and chemical storage stability of polymorphic forms; conditions: for physically stable, duration: ambient condition
# [3] = 40° C. under 75% relative humidity
SMILES,aqueous solubility [1] [µg/mL],"conversion to Form III (Hydrate B) [2, 3]","physically stable, duration [2]",also measured
"CNCc1ccc(-c2[nH]c3cc(F)cc4c3c2CCNC4=O)cc1.O=P(O)(O)O [Form IV, phosphate salt of 8-fluoro-2-{4-[(methylamino)methyl]phenyl}-1,3,4,5-tetrahydro-6H-azepino[5,4,3-cd]indol-6-one]",4500,–,–,–
"CNCc1ccc(-c2[nH]c3cc(F)cc4c3c2CCNC4=O)cc1.O=P(O)(O)O [Form V, phosphate salt of 8-fluoro-2-{4-[(methylamino)methyl]phenyl}-1,3,4,5-tetrahydro-6H-azepino[5,4,3-cd]indol-6-one]",–,–,–,"physically and chemically stable, duration ([2]; room temperature): at least 3 months"
"CNCc1ccc(-c2[nH]c3cc(F)cc4c3c2CCNC4=O)cc1.O=P(O)(O)O [Form I, phosphate salt of 8-fluoro-2-{4-[(methylamino)methyl]phenyl}-1,3,4,5-tetrahydro-6H-azepino[5,4,3-cd]indol-6-one]",2800,after one week,at least 3 months,–
"CNCc1ccc(-c2[nH]c3cc(F)cc4c3c2CCNC4=O)cc1.O=P(O)(O)O [Form II, phosphate salt of 8-fluoro-2-{4-[(methylamino)methyl]phenyl}-1,3,4,5-tetrahydro-6H-azepino[5,4,3-cd]indol-6-one]",3000,after 1 week,at least 3 months,Solubility (pH 3): 460 µg/mL; Solubility (pH 4): 390 µg/mL; Solubility (pH 5): 370 µg/mL; Solubility (pH 6): 320 µg/mL; Solubility (pH 7): 250 µg/mL; Solubility (pH 8): 190 µg/mL; conversion to Form III (Hydrate B) ([2]; 25° C. under 90% relative humidity): overnight
"CNCc1ccc(-c2[nH]c3cc(F)cc4c3c2CCNC4=O)cc1.O=P(O)(O)O [Form III, phosphate salt of 8-fluoro-2-{4-[(methylamino)methyl]phenyl}-1,3,4,5-tetrahydro-6H-azepino[5,4,3-cd]indol-6-one]",2700,–,–,–
